# Assay results from patent US10787462B2, “Heterocyclic compound” (TAKEDA PHARMACEUTICAL COMPANY LIMITED, priority 2015, dated 2020).
# Target: T1, human RIPK1 (1-375) (Homo sapiens, UniProt Q13546)
# T1 construct: human RIPK1 (1-375) gene; GST; made in house; host or cells: Sf-9 insect cells
# T1 sequence (Q13546 1-375): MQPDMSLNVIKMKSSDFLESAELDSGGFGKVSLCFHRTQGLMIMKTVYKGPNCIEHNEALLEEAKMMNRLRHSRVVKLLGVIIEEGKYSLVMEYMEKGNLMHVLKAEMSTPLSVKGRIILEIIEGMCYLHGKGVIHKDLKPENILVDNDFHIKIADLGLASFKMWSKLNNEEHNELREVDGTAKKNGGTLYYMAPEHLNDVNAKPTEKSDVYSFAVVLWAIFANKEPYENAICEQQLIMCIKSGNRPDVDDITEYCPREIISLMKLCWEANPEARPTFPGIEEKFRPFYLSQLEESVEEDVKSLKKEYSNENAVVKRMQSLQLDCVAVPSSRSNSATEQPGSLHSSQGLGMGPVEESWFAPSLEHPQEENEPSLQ
# Test: Human RIPK1 enzyme inhibitory effect (ADP-Glo Kinase Assay)
# Assay type: biochemical
# Conditions: well without enzyme = 100% inhibition; for human RIPK1 enzyme inhibitory effect at 10 μM (% inhibition): 10 μM test compound; for inhibition at 10 µM: read-out: human RIPK1 enzyme inhibitory effect at 10 μM (% inhibition), 10 μM test compound
# Outline: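 Human RIPK1 (1-375), GST-purified from Sf-9 cells, preincubated 20 min at room temperature with compound in 25 mM HEPES pH 7.5, 10 mM MgCl2, 0.01% Tween-20, 2 mM DTT. Reaction started with 0.6 mM ATP solution (stock), run 120 min at room temperature. ADP measured by ADP-Glo luminescence.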
Molecule,inhibition at 10 µM [%],further results
"CN1C(=O)C(N2CCc3c(nn(Cc4ccccc4F)c3Cl)C2=O)CCc2ccncc21 (centres unmarked) [Example 104, 3-(3-chloro-2-(2-fluorobenzyl)-7-oxo-2,4,5,7-tetrahydro-6H-pyrazolo[3,4-c]pyridin-6-yl)-1-methyl-1,3,4,5-tetrahydro-2H-pyrido[3,4-b]azepin-2-one]",,human RIPK1 enzyme inhibitory effect at 10 μM (% inhibition) (10 µM): 95%
"CN1C(=O)C(N2CCc3c(nn(Cc4ccccc4)c3Cl)C2=O)CCc2c1cnn2C (centres unmarked) [Example 126, 6-(2-benzyl-3-chloro-7-oxo-2,4,5,7-tetrahydro-6H-pyrazolo[3,4-c]pyridin-6-yl)-1,4-dimethyl-4,6,7,8-tetrahydropyrazolo[4,3-b]azepin-5(1H)-one]",98,
"CN1C(=O)[C@@H](N2CCc3c(nn(Cc4ccccc4)c3Cl)C2=O)COc2cc(-c3ccn(C)n3)ccc21 [Example 108, (3S)-3-(2-benzyl-3-chloro-7-oxo-2,4,5,7-tetrahydro-6H-pyrazolo[3,4-c]pyridin-6-yl)-5-methyl-8-(1-methyl-1H-pyrazol-3-yl)-2,3-dihydro-1,5-benzoxazepin-4(5H)-one]",100,
"CN1C(=O)C(N2CCc3c(nn(Cc4ccccc4F)c3Cl)C2=O)CCc2c1cnn2C (centres unmarked) [Example 131, 6-(3-chloro-2-(2-fluorobenzyl)-7-oxo-2,4,5,7-tetrahydro-6H-pyrazolo[3,4-c]pyridin-6-yl)-1,4-dimethyl-4,6,7,8-tetrahydropyrazolo[4,3-b]azepin-5(1H)-one]",,human RIPK1 enzyme inhibitory effect at 10 μM (% inhibition) (10 µM): 100%
"CN1C(=O)[C@@H](N2CCc3c(nn(Cc4ccccc4)c3Cl)C2=O)COc2cc(Br)ccc21 [Example 58, (3S)-3-(2-benzyl-3-chloro-7-oxo-2,4,5,7-tetrahydro-6H-pyrazolo[3,4-c]pyridin-6-yl)-8-bromo-5-methyl-2,3-dihydro-1,5-benzoxazepin-4(5H)-one]",101,
"CN1C(=O)[C@@H](N2CCc3c(nn(Cc4cnccn4)c3Cl)C2=O)COc2ccccc21 [Example 80, (3S)-3-(3-chloro-7-oxo-2-(pyrazin-2-ylmethyl)-2,4,5,7-tetrahydro-6H-pyrazolo[3,4-c]pyridin-6-yl)-5-methyl-2,3-dihydro-1,5-benzoxazepin-4(5H)-one]",101,
"CN1C(=O)[C@@H](N2CCc3cn(Cc4cccc(F)c4)nc3C2=O)CSc2ccccc21 [Example 156, (3R)-3-(2-(3-fluorobenzyl)-7-oxo-2,4,5,7-tetrahydro-6H-pyrazolo[3,4-c]pyridin-6-yl)-5-methyl-2,3-dihydro-1,5-benzothiazepin-4(5H)-one]",97,
"CCNC(=O)c1ccc2c(c1)OC[C@H](N1CCc3c(nn(Cc4ccccc4)c3Cl)C1=O)C(=O)N2C [Example 147, (3S)-3-(2-benzyl-3-chloro-7-oxo-2,4,5,7-tetrahydro-6H-pyrazolo[3,4-c]pyridin-6-yl)-N-ethyl-5-methyl-4-oxo-2,3,4,5-tetrahydro-1,5-benzoxazepine-8-carboxamide]",100,
"CN1C(=O)C(N2CCc3c(nn(Cc4ccccc4)c3Cl)C2=O)CCc2cnccc21 (centres unmarked) [Example 98, 3-(2-benzyl-3-chloro-7-oxo-2,4,5,7-tetrahydro-6H-pyrazolo[3,4-c]pyridin-6-yl)-1-methyl-1,3,4,5-tetrahydro-2H-pyrido[4,3-b]azepin-2-one]",98,
"CN1C(=O)[C@@H](N2CCc3sc(Cc4ccccc4)nc3C2=O)COc2ccccc21 [Example 16, (3S)-3-(2-benzyl-4-oxo-6,7-dihydro[1,3]thiazolo[4,5-c]pyridin-5(4H)-yl)-5-methyl-2,3-dihydro-1,5-benzoxazepin-4(5H)-one]",98,
"CN1C(=O)[C@@H](N2CCc3c(nn(Cc4ccccc4)c3OC(F)F)C2=O)COc2cc(Br)ccc21 [Example 123, (3S)-3-(2-benzyl-3-(difluoromethoxy)-7-oxo-2,4,5,7-tetrahydro-6H-pyrazolo[3,4-c]pyridin-6-yl)-8-bromo-5-methyl-2,3-dihydro-1,5-benzoxazepin-4(5H)-one]",98,
"CN1C(=O)C(N2CCc3c(nn(Cc4ccccc4F)c3Cl)C2=O)CCc2cnccc21 (centres unmarked) [Example 106, 3-(3-chloro-2-(2-fluorobenzyl)-7-oxo-2,4,5,7-tetrahydro-6H-pyrazolo[3,4-c]pyridin-6-yl)-1-methyl-1,3,4,5-tetrahydro-2H-pyrido[4,3-b]azepin-2-one]",,human RIPK1 enzyme inhibitory effect at 10 μM (% inhibition) (10 µM): 95%
"CN1C(=O)[C@@H](N2CCc3cn(CC4(C)CCC4)nc3C2=O)COc2ccccc21 [Example 173, (3S)-5-methyl-3-(2-((1-methylcyclobutyl)methyl)-7-oxo-2,4,5,7-tetrahydro-6H-pyrazolo[3,4-c]pyridin-6-yl)-2,3-dihydro-1,5-benzoxazepin-4(5H)-one]",98,
"CN1C(=O)[C@@H](N2CCc3c(nc(Cc4ccccc4)n3C)C2=O)COc2ccccc21 [Example 56, (3S)-3-(2-benzyl-1-methyl-4-oxo-1,4,6,7-tetrahydro-5H-imidazo[4,5-c]pyridin-5-yl)-5-methyl-2,3-dihydro-1,5-benzoxazepin-4(5H)-one]",96,
"CN1C(=O)[C@@H](N2CCc3cn(Cc4ccccc4F)nc3C2=O)COc2cc(C#N)ccc21 [Example 43, (3S)-3-(2-(2-fluorobenzyl)-7-oxo-2,4,5,7-tetrahydro-6H-pyrazolo[3,4-c]pyridin-6-yl)-5-methyl-4-oxo-2,3,4,5-tetrahydro-1,5-benzoxazepine-8-carbonitrile]",97,
"O=C1Nc2cc(Cl)ccc2OC[C@@H]1N1CCc2c(nn(Cc3ccccc3)c2Cl)C1=O [Example 144, (3S)-3-(2-benzyl-3-chloro-7-oxo-2,4,5,7-tetrahydro-6H-pyrazolo[3,4-c]pyridin-6-yl)-7-chloro-2,3-dihydro-1,5-benzoxazepin-4(5H)-one]",100,
"CN1C(=O)C(N2CCc3c(nn(Cc4ccccc4)c3Cl)C2=O)CCc2ccncc21 (centres unmarked) [Example 101, 3-(2-benzyl-3-chloro-7-oxo-2,4,5,7-tetrahydro-6H-pyrazolo[3,4-c]pyridin-6-yl)-1-methyl-1,3,4,5-tetrahydro-2H-pyrido[3,4-b]azepin-2-one]",97,
"CN1C(=O)[C@@H](N2CCc3c(nn(Cc4ccccc4)c3Cl)C2=O)COc2cc(C(=O)NCC(C)(C)O)ccc21 [Example 62, (3S)-3-(2-benzyl-3-chloro-7-oxo-2,4,5,7-tetrahydro-6H-pyrazolo[3,4-c]pyridin-6-yl)-N-(2-hydroxy-2-methylpropyl)-5-methyl-4-oxo-2,3,4,5-tetrahydro-1,5-benzoxazepine-8-carboxamide]",101,
"CN1C(=O)[C@@H](N2CCc3cn(Cc4ccccc4F)nc3C2=O)COc2ccccc21 [Example 9, (3S)-3-(2-(2-fluorobenzyl)-7-oxo-2,4,5,7-tetrahydro-6H-pyrazolo[3,4-c]pyridin-6-yl)-5-methyl-2,3-dihydro-1,5-benzoxazepin-4(5H)-one]",100,
"(3S)-7-chloro-3-(3-chloro-1-oxo- 2-(pyrazin-2-ylmethyl)-2,4,5,7- tetrahydro-6H-pyrazolo[3,4- c]pyridin-6-yl)-5-methyl-2,3- dihydro-1,5-benzoxazepin-4(5H)- one [Example 74]",,human RIPK1 enzyme inhibitory effect at 10 μM (% inhibition): 97%
"CN1C(=O)C(N2CCc3c(nn(Cc4ccccc4)c3Cl)C2=O)CCc2ncccc21 (stereo not drawn) [Example 66, 7-(2-benzyl-3-chloro-7-oxo-2,4,5,7-tetrahydro-6H-pyrazolo[3,4-c]pyridin-6-yl)-5-methyl-5,7,8,9-tetrahydro-6H-pyrido[3,2-b]azepin-6-one (optical isomer)]",,human RIPK1 enzyme inhibitory effect at 10 μM (% inhibition) (10 µM): 100%
"CN1C(=O)C(N2CCc3c(nn(Cc4ccccc4F)c3Cl)C2=O)CCc2cnccc21 (centres unmarked) [Example 96, 3-(3-chloro-2-(2-fluorobenzyl)-7-oxo-2,4,5,7-tetrahydro-6H-pyrazolo[3,4-c]pyridin-6-yl)-1-methyl-1,3,4,5-tetrahydro-2H-pyrido[4,3-b]azepin-2-one]",,human RIPK1 enzyme inhibitory effect at 10 μM (% inhibition) (10 µM): 96%
"CN1C(=O)C(N2CCc3c(nn(Cc4c(F)cccc4F)c3Cl)C2=O)CCc2c1cnn2C (centres unmarked) [Example 133, 6-(3-chloro-2-(2,6-difluorobenzyl)-7-oxo-2,4,5,7-tetrahydro-6H-pyrazolo[3,4-c]pyridin-6-yl)-1,4-dimethyl-4,6,7,8-tetrahydropyrazolo[4,3-b]azepin-5(1H)-one]",,human RIPK1 enzyme inhibitory effect at 10 μM (% inhibition) (10 µM): 100%
"O=C1Nc2ccccc2CCC1n1ccc2cn(Cc3ccccc3)nc2c1=O (centres unmarked) [Example 5, 3-(2-benzyl-7-oxo-2,7-dihydro-6H-pyrazolo[3,4-c]pyridin-6-yl)-1,3,4,5-tetrahydro-2H-1-benzazepin-2-one]",88,
"CN1C(=O)[C@@H](N2CCc3cn(Cc4ccccc4C#N)nc3C2=O)COc2ccccc21 [Example 28, 2-((6-((3S)-5-methyl-4-oxo-2,3,4,5-tetrahydro-1,5-benzoxazepin-3-yl)-7-oxo-4,5,6,7-tetrahydro-2H-pyrazolo[3,4-c]pyridin-2-yl)methyl)benzonitrile]",99,
"O=C1Nc2ccc(Br)cc2OC[C@@H]1N1CCc2c(nn(Cc3ccccc3)c2Cl)C1=O [Example 82, (3S)-3-(2-benzyl-3-chloro-7-oxo-2,4,5,7-tetrahydro-6H-pyrazolo[3,4-c]pyridin-6-yl)-8-bromo-2,3-dihydro-1,5-benzoxazepin-4(5H)-one]",99,
